Data as given in patent EP2605769B1, “BENZOQUINONE DERIVATIVES FOR THE TREATMENT OF MITCHONDRIAL EYE DISEASES” (Santhera Pharmaceuticals (Schweiz) AG, priority 2010, dated 2012).

Assays:
[1] = tested on: Immortalized lymphoblastoid cells (BC1 LCL); assay: ATP assay (ATP dependent luciferase reaction, low glucose); assay type: cell-based; conditions: 10 µM, 72 h
Description: Electrons donated from the citric acid cycle in form of NADH are transferred between complexes I, II and III of the respiratory chain. In this process mitochondrial membrane potential is generated through proton pumps in the mitochondrial inner membrane. This electrochemical gradient across the inner mitochondrial membrane is used in healthy cells to provide the energy to drive mitochondrial ATP production. Consequently, cellular ATP levels are a good indicator of mitochondrial function. […] A potential inhibition of mitochondrial respiration can be detected through special growth conditions in vitro. […]
Experimental Procedure: This assay was therefore performed in the absence of glucose in the medium. […] The number of cells was counted and after brief washing in PBS and collecting through centrifugation (5 min; 200 x g) the cells were lysed in a volume of 0.5 ml lysis solution (4 mM EDTA, 0.2% Triton X-100) for 15 min.on ice and 10 µl of lysate was added into a white 96 well plate. […] The reaction was started by addition of 100 µl reaction mix (300 µM D-Luciferin, 5 µg/ml firefly luciferase, 75 µM DTT, 25 mM HEPES, 6.25 mM MgCl2, 625 µM EDTA and 1 mg/ml BSA) and the luminescence signal was quantified in a multimode plate reader (Tecan M1000 plate reader; luminescence integration time: 100 ms). […]

C57BL/6J mice = assay: Optomotor testing of visual acuity in the rotenone mouse model; assay type: in vivo; conditions: for Number of counterclockwise head movements/ 2 min / Number of clockwise head movements/ 2 min: 5 weeks after injection, ± SEM; for Number of counterclockwise head movements/ 2 min: non-injected eye; for Number of clockwise head movements/ 2 min: rotenone-injected eye; for Number of head movements: 2000 mg/kg in diet, mean ± SEM
Experimental: Since RGC loss is associated with visual acuity impairment, we tested whether the neuroprotective effect of the test compound IA also correlated with recovery of visual function. For this purpose, visual acuity was detected by quantifying the optomotor response of animals subjected to the test system described above. The optomotor response was measured as previously described (see […]., et al. Vis. Res., 2005). Mice were placed on a central platform surrounded by a motorized drum with black and white vertical stripes that can rotate in both, clockwise and counterclockwise, direction at different velocities (which can be adjusted to evoke the optimal optokinetic response), and under constant light levels. Mice were allowed to habituate for 5 min to the experimental conditions before stripes were rotated alternately clockwise and counterclockwise, for 2 min in each direction and with an interval of 30 s between the two rotations. The mice were recorded on a computer using a digital video camera mounted above the apparatus to subsequently score the number of head movements by manual counting. Head movements were scored only when the angular speed of the head turn corresponds to that of the drum rotation. After aquisition and encoding by an investigator, a second, blinded investigator conducted all assessments. Codes were broken upon completion of data acquisition by a third investigator. Each mouse was tested at different time points and the apparatus will be cleaned between mice. Data will be presented as mean ± SEM. Paired Student's t-test and analysis of variance (ANOVA) will be used to compare non-normalized data. Statistical significance will be set at p≤0.05(*), p≤0.01(**) and p≤0.001 (***). Table 7: Effect of idebenone pre-treatment on visual acuity in an in vivo mouse model for LHON. Quantification of mouse visual acuity based on the optomotor response in mice pre-treated for 3 weeks with vehicle and idebenone 2000 mg/kg in diet. […] The optomotor response was examined in both clockwise (a) and counterclockwise (b) directions of motion, clockwise and counterclockwise tracking head movements reflecting visual acuity of the rotenone-injected (left) and non-injected (right) eye, respectively.

[2] = rats, cited from earlier work
[3] = oral dose of 10 mg/kg, Torii et al.

Structure (SMILES)	ATP levels [1] [%]	Number of counterclockwise head movements/ 2 min (C57BL/6J mice; 2000 mg/kg + rotenone 1 mM) [head movements/2 min]	Number of clockwise head movements/ 2 min (C57BL/6J mice; 2000 mg/kg + rotenone 1 mM) [head movements/2 min]	Number of counterclockwise head movements/ 2 min (C57BL/6J mice; 2000 mg/kg + rotenone 5 mM) [head movements/2 min]	Number of clockwise head movements/ 2 min (C57BL/6J mice; 2000 mg/kg + rotenone 5 mM) [head movements/2 min]	Number of head movements (C57BL/6J mice; time post-injection 1 day)	Number of head movements (C57BL/6J mice; time post-injection 7 days)	Number of head movements (C57BL/6J mice; time post-injection 14 days)	Number of head movements (C57BL/6J mice; time post-injection 21 days)	Number of head movements (C57BL/6J mice; time post-injection 28 days)	Number of head movements (C57BL/6J mice; time post-injection 35 days)	Number of head movements (C57BL/6J mice; time post-injection 56 days)	Number of head movements (C57BL/6J mice; time post-injection -7 days)	brain- to-plasma ratio ([2]; oral 100 mg/kg, Nagai et al)	levels in the brain of total idebenone (including metabolites) [2, 3] [ng/mL]	plasma levels of total idebenone (including metabolites, by radioactivity) [2, 3]
COC1=C(OC)C(=O)C(CCCCCCCCCC(C)(C)O)=C(C)C1=O [Compound IC]	63															
COC1=C(OC)C(=O)C(CCCCCCCCCCO)=C(C)C1=O [Compound IA, Idebenone]		12.5 ± 4.5	9 ± 2	10.5 ± 0.6	3.5 ± 1.5	0 ± 0 (n=7) head movements/2 min	0.5 ± 0.5 (n=7) head movements/2 min	1.8 ± 0.8 (n=7) head movements/2 min	2.8 ± 1.4 (n=7) head movements/2 min	2.8 ± 1.4 (n=7) head movements/2 min	3.5 ± 1.5 (n=7) head movements/2 min	6 ± 2.1 (n=4) head movements/2 min	9.7 ± 0.7 (n=7) head movements/2 min	1-2%	10	approximately 1000 ng/ml
CCCCCCCCCCCC1=C(O)C(=O)C=C(O)C1=O [Compound IE, Embelin]	95															
